Measured values as given in patent publication US9713598B2, “Treatment of insulin resistance associated with prolonged physical inactivity” (ABBOTT LABORATORIES, priority 2013, dated 2017).
Several values for one entry are separate records, joined by “and”; a condition that tells them apart may be missing. Identical values can stand only once.

Tests used:
Type in all cases: in vivo
[1] = test system: Insulin-like Growth Factor-Binding Protein 2 (IGFBP-2); assay: 10-day bed rest study in healthy elderly subjects: circulating IGFBP-2 (RBM Human Discovery map, serum)
Text: (§1) The following inclusion criteria were verified at screening: male or female ≧60 to ≦79 years of age; body mass index (BMI) ≧20 but ≦35; ambulatory with a Short Performance Physical Battery (SPPB) score of ≧9 (fully functional with no mobility limitations); compliance with prescribed activity level. Exclusion criteria ruled out subjects who had undergone recent major surgery, had active malignancy (exception basal or squamous cell skin carcinoma or carcinoma in situ of the uterine cervix); history of Deep Vein Thrombosis (DVT) or other hypercoagulation disorders; refractory anemia; history of diabetes or fasting blood glucose value >126 mg/dL; presence of partial or full artificial limb; kidney disease or serum creatinine >1.4 mg/dL; evidence of cardiovascular disease assessed during resting or exercise EKG; untreated hypothyroidism; liver disease; chronic or acute GI disease; uncontrolled severe diarrhea, nausea or vomiting; were actively pursuing weight loss; were enrolled in other clinical trials; could not refrain from smoking over the bed rest study period or could not discontinue anticoagulant therapy over bed rest period. Potential subjects were also excluded if they were taking any medications known to affect protein metabolism (e.g., progestational agents, steroids, growth hormone, dronabinol, marijuana, HMB, free amino acid supplements, dietary supplements to aid weight loss).
(§2) The 24 healthy subjects initially involved in the study were randomized into two groups. Subjects in the treatment group received two β-hydroxy-β-methylbutyrate (HMB) sachets containing 1.5 grams Ca-HMB (TSI, Salt Lake City, Utah), 4 grams maltodextrin and 200 mg Calcium with additional sweetener and flavoring groups. Subjects in the control group received two control sachets that were identical to the HMB sachets with the exclusion Ca-HMB. This study was a double-blinded study. Neither the investigators nor the subjects were informed of the identity of any of the study products during the clinical portion of the study. Subjects were instructed to consume twice daily by mixing each sachet into a non-caloric, non-caffeinated, non-carbonated, non-milk-based beverage of their choice. Treatment with HMB or Control was initiated 5 days prior to bed rest and was continued until the end of the rehabilitation period.
(§3) For diet stabilization over the pre-bed rest and bed rest period, subjects were fed a metabolically controlled diet providing the RDA for protein intake (0.8 g protein/kg body weight per day). Total calorie needs were estimated using the Harris-Benedict equation for resting energy expenditure according to the following equation: For women=[655+(9.56×body weight in kg)+(1.85×height in cm)−(4.68×age in years)]×AF, or, For men=[66+(13.7×body weight in kg)+(5×height in cm)−([…]]×AF, where AF=activity factor of 1.6 for the ambulatory and 1.35 for the bed rest periods. Given the total calorie and protein intakes, the remainder of the diet was manipulated to keep the non-protein calories at about 60% from carbohydrates and 40% from fat. Water was provided ad libitum.
(§4) After a diet stabilization of 5 days (ambulatory period), subjects remained in bed continuously for 10 days. While confined to bed rest, subjects were allowed to use the bedside commode for urination or were taken in a wheelchair for toileting. […] Subjects were constantly monitored by nursing staff and received a daily physical examination by the study physician. […]

[2] = test system: C-peptide; assay: 10-day bed rest study in healthy elderly subjects: circulating C-peptide (RBM Human Discovery map, serum)
Text: as §1, §2, §3, §4

[3] = test system: Leptin; assay: 10-day bed rest study in healthy elderly subjects: circulating Leptin (RBM Human Discovery map, serum)
Text: as §1, §2
For diet stabilization over the pre-bed rest and bed rest period, subjects were fed a metabolically controlled diet providing the RDA for protein intake (0.8 g protein/kg body weight per day). […]
After a diet stabilization of 5 days (ambulatory period), subjects remained in bed continuously for 10 days. […] Subjects were constantly monitored by nursing staff and received a daily physical examination by the study physician. […]

[4] = HMB Treatment (n = 10), end of 10 days of bed rest
[5] = HMB Treatment (n = 10), two sachets of 1.5 g Ca-HMB daily, started 5 days prior to bed rest, fasted blood, Day 1 of bed rest

## CC(C)(O)CC(=O)O [HMB, β-hydroxy-β-methylbutyric acid]
[1]; 10 HMB treated subjects, after 10 days of bed rest, control −24.56%
  percent change in blood levels of IGFBP-2: −15.63%
[1]; [4]
  IGFBP-2, Post-bed rest Mean: 106.97 ng/mL
[1]; HMB Treatment (n = 10), pre- to post-bed rest, 10 days, control change −30.54 ± 13.64
  IGFBP-2, Change: -20.89 ng/mL and -20.89 ± 6.84 ng/mL
[1]; [5]
  IGFBP-2, Pre-bed rest Mean: 127.86 ng/mL
[1]; prolonged bed rest, 10 days
  effect on bed-rest change in blood levels of IGFBP-2 versus control subjects: reduces or attenuates the decrease in blood levels of IGFBP-2
[2]; 10 HMB treated subjects, after 10 days of bed rest, control 43.0%
  percent increase in blood levels of C-peptide: 29.59%
[2]; [4]
  C-peptide, Post-bed rest Mean: 1.69 ng/mL
[2]; HMB Treatment (n = 10), pre- to post-bed rest, 10 days, control change 0.54 ± 0.22
  C-peptide, Change: 0.28 ng/mL and 0.28 ± 0.08 ng/mL
[2]; [5]
  C-peptide, Pre-bed rest Mean: 1.41 ng/mL
[2]; prolonged bed rest, 10 days
  effect on bed-rest change in blood levels of C-peptide versus untreated control subjects: reduces or attenuates the increase in blood levels of C-peptide
[3]; [4]
  Leptin, Post-bed rest Mean: 19.31 ng/mL
[3]; HMB Treatment (n = 10), pre- to post-bed rest, 10 days, control change 5.06 ± 1.88
  Leptin, Change: 4.11 ng/mL and 4.11 ± 1.89 ng/mL
[3]; [5]
  Leptin, Pre-bed rest Mean: 15.20 ng/mL
[3]; prolonged bed rest, 10 days
  effect on bed-rest change in blood levels of Leptin versus untreated control subjects: reduces or attenuates the increase in blood levels of Leptin
